Data from US20230148144A1, “Cell” (AUTOLUS LIMITED, priority 2020, published 2023).

System: CAR-T cells
Experiment: Effect of Tacrolimus on proliferation of CAR-expressing cells in co-culture
Type: cell-based
Conditions: 20 ng/ml Tacrolimus
Method: Cells were co-cultures for 96 hours at a 1:4 E:T ratio in the presence or absence of 20 ng/ml of Tacrolimus. Transduced effector cells were identified based on their expression of RQR8 and their proliferation analysed using cell-trace violet (CTV) dilution. […] In a similar study, cells transduced to express either TRBC2 CAR alone or TRBC2 CAR in combination with a calcineurin mutant (CnB30) were co-cultured for 4 days with TRBC2+ positive targets in the presence or absence of 20 ng/ml of Tacrolimus. […] This was true for cells expressing TRBC2 CAR alone or co-expressing TRBC2 CAR in combination with the calcineurin mutant.

C=CC[C@@H]1/C=C(\C)C[C@H](C)C[C@H](OC)[C@H]2O[C@@](O)(C(=O)C(=O)N3CCCC[C@H]3C(=O)O[C@H](/C(C)=C/[C@@H]3CC[C@@H](O)[C@H](OC)C3)[C@H](C)[C@@H](O)CC1=O)[C@H](C)C[C@@H]2OC [Tacrolimus]
proliferation of cells expressing TRBC2 CAR alone (4 days co-culture with TRBC2+ targets, FIG. 22): inhibits proliferation | proliferation of CAR-T cells (96 h co-culture, FIG. 16B vs FIG. 17B): inhibited
